We go through one molecule from patent publication US9862690B2, “Treatment of pulmonary and other conditions” (University of Pittsburgh—of the Commonwealth System of …, priority 2013, dated 2018).

Data set [1] is described as follows: FRAP assay (ferric reduction/anti-oxidant power). The following applies: 10 μmol compound, 5 min, 593 nm; Troxol reference. It counts as biochemical. As for the experimental part:
The antioxidant activity of PB141 was determined by ferric reduction/anti-oxidant power (FRAP) assay in which the compound is reacted with ferric tripyridyltriazine complex. Data are representative of one of two independent experiments; n=3; *** P<0.001 versus Troxol.
The antioxidant activity of PB141 or PB157 was determined by ferric reduction/anti-oxidant power (FRAP) assay in which the compounds are reacted with ferric tripyridyltriazine complex. The ferric complex was prepared at room temperature by reaction of ferric chloride (16.7 mmol) and 2,4,6-trispyridyl-s-triazine (8.33 mmol) in pH 3.6 acetate buffer (0.25 M). The FRAP reagent was used immediately after preparation. PB141 or PB157 (10 μmol) was added to the FRAP reagent (1 ml) and mixed by vortexing. The reaction was allowed to stabilize for 5 min and the absorbance was measured. The antioxidant activities of these compounds were determined by the ability to reduce the ferric complex to a […] ferrous complex, monitored at 593 nm. Troxol (10 μmol) was used as reference standard.

Data set [2] relates to mice (lung, kidney, liver and other organs). The data set can be described thus: Toxicity of long-term, high-dose nebulized delivery. The data set is classed as in vivo. The following applies: 25 mg/kg or 250 mg/kg aerosolized daily up to 30 days. As for the experimental part: (§1) PB141 was delivered to mice by nebulization at doses of 25 or 250 mg/kg for up to 30 days. (A) Lungs were excised, sectioned, and examined histologically for evidence of inflammation or injury. (B) Potential kidney and liver injury were assessed by serum levels of creatinine, AST, and ALT. […] Acute lung injury was induced in mice by intratracheal administration of LPS. Thirty min later PBS or varying concentrations of PB141 were delivered into cage air by nebulization. Following sacrifice, nuclear proteins were isolated from lungs and used to determine DNA-binding activity of the p65 subunit of the pro-inflammatory transcription factor NF-κB.
PB141 (25 mg/kg or 250 mg/kg) was aerosolized to mice daily for up to 30 consecutive days. The standard dose used in efficacy studies is 25 mg/kg for 1-10 days. At the conclusion of each experiment blood was collected and the lungs were excised and examined histopathologically for evidence of injury or toxicity. Serum levels of creatinine and aspartate (AST) and alanine (ALT) aminotransferases were measured using enzyme-linked immunosorbent assay (ELISA) kits (R&D Systems, Minneapolis, Minn.) according to the manufacturer's instructions. At the end of 30 days' exposure, other organs were also excised and similarly examined (data not shown).

The target in data set [3] is T1, p65 subunit of NF-κB (Mus musculus, UniProt Q04207).
T1 construct: Following sacrifice, nuclear proteins were isolated from lungs; from tissue; host or cells: mouse lung (nuclear proteins)
Description: LPS-induced lung NF-κB p65 DNA-binding activity after nebulized delivery. The data set is classed as in vivo, mice. The following applies: i.t. LPS; different concentrations nebulized 30 min later for 30 min. The method, then:
as §1
In other experiments, acute lung injury was induced by intratracheal (i.t.) injection of endotoxin [lipopolysaccharide (LPS)] prepared from Escherichia coli O111:B6 (Sigma-Aldrich; St. Louis, Mo.). Thirty minutes later different concentrations of PB141 in isotonic saline were nebulized and delivered into cage air for 30 min using a micropump nebulizer (Buxco Research Systems, Wilmington, N.C.) fitted at the chamber inlet and flowing at 10 L of air/min. PBS was similarly delivered as a control. Nuclear proteins were prepared from lung samples and their concentrations were determined and used to quantify DNA-binding activity of the p65 subunit of the pro-inflammatory transcription factor NF-κB.

In data set [4] the test system is pulmonary fibrosis in mice. The data set can be described thus: Pulmonary fibrosis model (bleomycin, asbestos or X-ray induced). It counts as in vivo. As for the experimental part:
Induction of pulmonary fibrosis by intratracheal injection of bleomycin sulphate (BLM; 0.05 units) was followed by nebulization of PB141 (25 mg/kg) or vehicle (saline) and delivery to cage air via a micropump nebulizer. After 21 days lung samples were obtained. (A) Lung hydroxyproline content. (B) Lung fibrinolysis. (C) Lung collagen content. (D) Lung TGF-β content. Data are representative of one of two independent experiments with n=5-7 mice per group; ** p<0.01, *** p<0.001.
Lung fibrosis was induced by methods previously reported in literature of the relevant art. Briefly, 50 μl of bleomycin sulfate in saline or 0.1 mg of NIEHS crocidolite asbestos (N 10 μm in length) was administered intratracheally into anesthetized mice. In some experiments fibrosis was induced by the following standard X-ray exposure procedure: Anesthetized mice at the age of 10-12 weeks were immobilized, with a lead shield excluding all but the thoracic cavity. Animals were then irradiated with a single dose of 14.5 Gy from a cesium source (J. L. Shepherd and Associates, San Fernando, Calif.) at a dose rate of 1.65 Gy/min LD50 for C57BL/6J mice is 14.5 Gy. At this dose, survival is sufficient to permit adequate numbers of animals for long-term analyses.
After induction of pulmonary fibrosis using the methods as described above, PB141 (25 mg/kg) dissolved in normal saline was delivered for 30 min via a micropump nebulizer (Buxco Research Systems, Wilmington, N.C.) fitted at the chamber inlet. After 21 days, bronchoalveolar lavage fluid (BALF) samples were obtained and analyzed for cellular infiltration by hemocytometer and differential staining of cells. Pulmonary fibrosis was assessed from lung homogenates by estimating total lung collagen content using the Sircol Collagen Assay kit (Biocolor) and hydroxyproline content using a hydroxyproline assay kit (BioVision, Mountain View, Calif.) according to the manufacturer's instructions. Lung histology sections were assessed by morphometry, hematoxylin and eosin (H&E) staining, and Masson's trichrome staining.

In data set [5] the test system is human lung adenocarcinoma cell lines (NCI-H661, NCI-H441 and NCIH1299). The data set can be described thus: Proliferation (BrdU) and apoptosis (TUNEL) of NNK-treated lung adenocarcinoma cells. The following applies: pretreated 1 to 5 μM, then 1 μM NNK; data not shown. It counts as cell-based. As for the experimental part:
For further in vitro studies, human lung adenocarcinoma cell lines (NCI-H661, NCI-H441 and NCIH1299) were obtained from American Type Culture Collection. Cells were treated with 1 μM NNK for 1 hr. In some experiments cells were pretreated with 1 to 5 μM PB141 before treatment with NNK. Cell proliferation was assessed by BrdU proliferation kit (Roche Applied Science). Apoptosis was assessed by TUNEL assay.

T1 sequence (Q04207 whole entry): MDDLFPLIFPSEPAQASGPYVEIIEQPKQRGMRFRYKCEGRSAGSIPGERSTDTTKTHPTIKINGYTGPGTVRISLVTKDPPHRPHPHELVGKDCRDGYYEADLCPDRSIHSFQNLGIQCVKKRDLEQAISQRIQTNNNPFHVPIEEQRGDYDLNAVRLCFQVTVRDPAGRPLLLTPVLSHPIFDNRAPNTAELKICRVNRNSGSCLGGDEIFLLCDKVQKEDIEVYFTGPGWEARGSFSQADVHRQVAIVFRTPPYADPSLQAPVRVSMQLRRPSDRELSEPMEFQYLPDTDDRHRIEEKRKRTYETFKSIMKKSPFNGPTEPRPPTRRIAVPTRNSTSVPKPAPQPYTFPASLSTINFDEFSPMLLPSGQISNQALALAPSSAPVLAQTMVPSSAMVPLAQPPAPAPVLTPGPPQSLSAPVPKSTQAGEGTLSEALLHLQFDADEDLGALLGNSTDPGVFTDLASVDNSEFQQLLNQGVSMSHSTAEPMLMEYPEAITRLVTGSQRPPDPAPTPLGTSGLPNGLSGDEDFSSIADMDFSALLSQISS

Turning to `CC(=O)N[C@@H](CSC(CC(=O)CC(SC[C@H](NC(C)=O)C(=O)O)c1cnccn1)c1cnccn1)C(=O)O` (stereo partly shown) [PB141], the “Antioxidant activity (reduction of ferric complex)” value in data set [1] is “highly significant and approximately equal”. The “Injury or toxicity (lung histopathology, serum creatinine, AST, ALT, other organs)” value in data set [2] is “No evidence of injury or toxicity”. The “LPS-induced upregulation of NF-κB in lung” value in data set [3] was “inhibited the LPS-induced upregulation of NF-κB in a concentration-dependent manner”. In data set [4] (25 mg/kg nebulized, 21 days), the Collagen production result is given as “effectively prevented”, the Inflammatory cell infiltration result is reported as “effectively prevented” and the Myofibroblast differentiation entry is recorded as “effectively prevented”. In data set [4] (even with intratracheal administration), the “Tolerability of the solution” value was “well tolerated”. In addition, the Pulmonary fibrosis result in data set [4] (repeated pulmonary dosing, 25 mg/kg) is recorded as “significantly reduced”. Further, in data set [5], the “Apoptosis (TUNEL)” value was “induced apoptosis” and the “Cell proliferation (BrdU)” value was “significantly decreased”.
